For 30 compounds, inhibition, IC50 and IC90 results are on record in PubChem BioAssay AID493181 (Southern Research Specialized Biocontainment Screening …, 2011).

Activity calls are given as the source filed them. How the calls were made is not given here. Where a SMILES comes first, the peptide text is derived from it. The star is where a group is joined. Cbz = O=C(OCc1ccccc1)* A value given as a limit tells only on which side of the number the result lay.

By inhibition is commonly meant the change of the read-out against control, counted positive when it falls. As usually defined, the IC50 is the midpoint of a concentration-inhibition curve. In general, IC90 refers to the point of the concentration-response curve where the effect stands at 90%. Higher therefore signals weaker potency.

Assay [1] can be described thus: M. tuberculosis growth inhibition, confirmation, H37Rv, purified and synthesized compounds (AID 493181). The settings on record: M. tuberculosis H37Rv growth inhibition, no glycerol; at 100 µM (top of the series).
In assay [2] the test system is M. tuberculosis H37Rv growth inhibition, no glycerol. The description is as above. The settings on record: for IC90: 90% growth inhibition concentration.

Take `Oc1ccccc1/C=N/Nc1ccnc(SCc2ccccc2)n1`: the inhibition in assay [1] is 0.65% (inactive).
In the case of `CCc1ccc(/C=C2/C(=O)N(C)C(=S)N2CC(=O)OC)s1`, in assay [2], the half-maximal inhibitory concentration (IC50) is 2950 nM and the IC90 worked out at 7160 nM.
The matching figures for `O=C(CSc1nc2ccccc2c(=O)[nH]1)NC1CCCCC1`: less than 200 nM and less than 200 nM.
The matching figures for `Cc1nn2c(NCc3ccccn3)cc(C(C)C)nc2c1-c1ccccc1`: 1480 nM and 2670 nM.
The matching figures for `c1ccc(/N=C2\N=C(Nc3ccccn3)c3ccccc32)nc1`: less than 200 nM and less than 200 nM.
`Cc1cccc(/C=C/C(=O)c2ccc([N+](=O)[O-])o2)c1`: in assay [2], the half-maximal inhibitory concentration (IC50) is less than 200 nM and the 90% effect concentration (IC90) was less than 200 nM.
In the case of `COC(=O)C(C)Oc1ccc(-c2nccc(-c3ccccn3)n2)cc1` (centres undefined), in assay [2], the IC50 was 1490 nM and the 90% effect concentration (IC90) is 3310 nM.
The matching figures for `CCOC(=O)c1ccc(NC(=O)Cn2ncc(Cl)c(Cl)c2=O)cc1`: less than 200 nM and 1550 nM.
The matching figures for `O=C1C(Br)=Cc2cccc3cccc1c23`: less than 200 nM and less than 200 nM.
The corresponding values for `O=C(/C=C\c1cccs1)N1CCN(Cc2ccc3c(c2)OCO3)CC1` are less than 200 nM and 2780 nM.
Turning to `CCOC(=O)C(C)Sc1ncnc2c1nnn2-c1ccc(F)cc1` (centres undefined), in assay [2], the half-maximal inhibitory concentration (IC50) was 1380 nM and the IC90 is 3380 nM.
The corresponding values for `CCC(C)Nc1ccc(NC(C)CC)cc1` (centres undefined) are 1100 nM and 1500 nM.
The corresponding values for `O=C(/C=C/c1ccccc1)N1CCN(CCN2C(=O)c3cccc4cccc(c34)C2=O)CC1` are 3170 nM and more than 100000 nM.
On to `COc1cc(NC(=O)C/C(C)=N/NC(=O)c2ccccn2)c(OC)cc1Cl`, for which, in assay [2], the IC50 is 3690 nM and the 90% effect concentration (IC90) came out at 8340 nM.
The matching figures for `COC(=O)CCc1nc2c(C#N)c(-c3ccc(Cl)cc3)ccn2n1`: 760 nM and 7910 nM.
The matching figures for `CC(=NCc1ccc2c(c1)OCO2)C1=C(O)c2ccccc2C1=O`: less than 200 nM and 2600 nM.
Regarding `O=C(CSc1nc2ccccc2c(=O)[nH]1)NCc1ccc(Cl)cc1`, in assay [2], the IC50 was 390 nM and the IC90 stood at 1820 nM.
For `Cc1ccc2ccc3ccc(C)nc3c2n1`, in assay [2], the 50% inhibitory concentration (IC50) is less than 200 nM and the IC90 came out at 920 nM.
The corresponding values for `Cc1ccc2c(c1)c(C1=c3ccccc3=NC1=O)c(O)n2C` are 840 nM and 1470 nM.
The corresponding values for `CC(C)NC(=O)c1sc(=S)n2c1[nH]c(=O)c1ccc(C(=O)NCCc3ccc(Cl)cc3)cc12` are less than 200 nM and 1510 nM.
The corresponding values for `CCOC(=O)CNC(=O)[C@H](Cc1ccccc1)NC(=O)OCc1ccccc1` (Cbz-Phe-Gly-OEt) are 1410 nM and 2110 nM.
As for `COC(=O)c1cc(=O)n(-c2ccc(F)cc2)c(=Nc2ccc(F)cc2)s1`, in assay [2], the IC50 is less than 200 nM and the IC90 is 4510 nM.
The corresponding values for `CCOC(=O)COc1ccc(/C=C2\NC(=S)N(CC)C2=O)cc1` are 1930 nM and 3450 nM.
The corresponding values for `O=C(NCC(c1cccs1)N1CCOCC1)c1cc([N+](=O)[O-])cc([N+](=O)[O-])c1` (centres undefined) are less than 200 nM and 780 nM.
In the case of `Cc1nc(SCC(=O)NC2CCCCC2)[nH]c(=O)c1C`, in assay [2], the IC50 was less than 200 nM and the IC90 was determined as 540 nM.
The corresponding values for `Cc1ccc(NC(=O)C2C3/C=C\CCCCC32)cc1C` (centres undefined) are 1480 nM and 1680 nM.
The matching figures for `COC(=O)C1CC(=O)N(c2ccc(OCc3ccccc3Cl)cc2)C1` (centres undefined): 830 nM and 8400 nM.
`S=c1nc[nH]c2nc[nH]c12`: in assay [2], the half-maximal inhibitory concentration (IC50) was 1500 nM and the concentration for an effect of 90% (IC90) was 1650 nM.
Take `CNc1nc(SCc2ccccc2Cl)nc2c1CCCC2`: in assay [2], the IC50 was less than 200 nM and the IC90 was determined as 2320 nM.
The corresponding values for `CCOC(=O)COn1c2c(c3c4no[n+]([O-])c4ccc31)CCCC2` are 2140 nM and 3780 nM.
